Data from article PMC11372264, “^61Cu-PSMA–Targeted PET for Prostate Cancer: From Radiotracer Development to First-in-Human Imaging” (Journal of Nuclear Medicine, 2024).

Tests used:
[1] = Stability of radiotracer at room temperature (radiochemical purity over time); format: physicochemical; details: 24 MBq/nmol, 4 h
Method: [^61Cu]Cu-DOTAGA-PSMA-I&T and [^61Cu]Cu-NODAGA-PSMA-I&T were synthesized with radiolabeling yield of more than 98% and radiochemical purity of more than 97% (radio–high-performance liquid chromatography analysis) at an apparent molar activity of 24 MBq/nmol. Thus, no purification was required after labeling. Although [^61Cu]Cu-DOTAGA-PSMA-I&T needed elevated temperature (95°C) and 15 min of reaction time, [^61Cu]Cu-NODAGA-PSMA-I&T was synthesized at room temperature within 5 min. After 4 h at room temperature, the radiochemical purity of [^61Cu]Cu-DOTAGA-PSMA-I&T dropped to approximately 90%, whereas it remained stable (∼97%) for [^61Cu]Cu-NODAGA-PSMA-I&T. All analytic data and quality control results are provided in Supplemental Figures 1 and 2 and in Supplemental Tables 1 and 2.
With inexpensive ^natNi as the starting material, highly pure ^61Cu could be produced with radionuclidic purity exceeding 99.99% at 12 h after synthesis (details on the production will be published elsewhere). The preparation of [^61Cu]Cu-NODAGA-PSMA-I&T was performed in widely used buffers at room temperature within 5 min. […] High labeling yields and suitable molar activities for clinical use eliminate the need for any purification step after labeling. […]

[2] = Lipophilicity: distribution coefficient in 1:1 1-octanol/phosphate-buffered saline at pH 7.4; format: physicochemical
Method: (§1) The lipophilicity of [^61Cu]Cu-DOTAGA-PSMA-I&T and [^61Cu]Cu-NODAGA-PSMA-I&T was assessed by determining the distribution coefficient in a 1:1 mixture of 1-octanol–to–phosphate-buffered saline at pH 7.4, in comparison with all reference radiotracers. Inhibitory concentration of 50% (IC50) was assessed by competition binding on lymph node carcinoma of the prostate (LNCaP) using ((S)-1-carboxy-5-(4-(-^125I-iodo-benzamido)pentyl)carbamoyl)-L-glutamic acid as the reference radioligand. Cellular uptake and distribution were assessed in LNCaP cells at 5, 15, 30, 60, and 120 min after exposure to the radioligand at 37°C, either alone or in the presence of 10 µM 2-(phosphonomethyl)pentanedioic acid to distinguish between specific and nonspecific uptake.

LNCaP cells = test: Cellular uptake and distribution (surface-bound, internalized) in LNCaP cells; format: cell-based; details: 1 h, 37°C
Method: as §1
FIGURE 1. In vitro assessment in LNCaP cells after 1 h at 37°C. (A) Competition binding activity curves of ^natCu-DOTAGA-PSMA-I&T, ^natCu-NODAGA-PSMA-I&T, and ^natGa-PSMA-11 on LNCaP cells after 1 h of incubation on ice, using ((S)-1-carboxy-5-(4-(-^125I-iodo-benzamido)pentyl)carbamoyl)-L-glutamic acid ([^125I-BA]KuE) at concentration of 0.2 nM as reference radioligand. (B) Cellular uptake (surface-bound + internalized). Cell surface–bound and internalized fractions are indicated. Results represent mean ± SD of specific (total − nonspecific) uptake from minimum of 2 separate experiments, each in triplicate.

[3] = In vivo metabolic stability (radio-HPLC of urine, liver and kidney homogenates); design: species or system BALB/c mice; details: 1 h after injection
Method: The stability of [^61Cu]Cu-DOTAGA-PSMA-I&T and [^61Cu]Cu-NODAGA-PSMA-I&T was assessed by radio–reversed-phase high-performance liquid chromatography in urine and in liver and kidney homogenates from healthy BALB/c mice after injection of 100 µL/400 pmol/8–9 MBq of each radiotracer. Details are provided in the supplemental materials.

LNCaP xenografts = test: Biodistribution in LNCaP xenografts; format: in vivo, mice
Method: All animal experiments were conducted in accordance with Swiss animal welfare laws and regulations under license number 30515 granted by the Veterinary Office, Department of Health, Canton Basel-Stadt, Switzerland. Male athymic nude-Foxn1^nu/Foxn1^+ mice (Envigo), 4–6 wk old, were inoculated subcutaneously on the shoulder with 10^7 LNCaP cells, freshly suspended in a 1:1 ratio of sterile minimum essential medium with basal medium Eagle and Matrigel. The tumors were allowed to grow to a volume of approximately 200 mm^3.
The biodistribution of [^61Cu]Cu-DOTAGA-PSMA-I&T and [^61Cu]Cu-NODAGA-PSMA-I&T (100 µL/200 pmol/2–3 MBq) was compared with that of [^68Ga]Ga-DOTAGA-PSMA-I&T, [^68Ga]Ga-NODAGA-PSMA-I&T, and [^68Ga]Ga-PSMA-11 (100 µL/200 pmol/3–5 MBq), as well as [^18F]PSMA-1007 (100 µL/70 pmol/15 MBq). This comparison was conducted at 1 h after injection for all radiotracers and at 4 h after injection for the ^61Cu-labeled tracers and [^18F]PSMA-1007. The specificity of the ^61Cu-labeled tracers was assessed at 1 h after injection by blocking studies with 2-(phosphonomethyl)pentanedioic acid (100 µL/1.3 µmol) being injected 3–5 min before the injection of the radiotracer.

[4] = 1 h after injection, blocking with 2-(phosphonomethyl)pentanedioic acid 1.3 µmol

For O=C([O-])CN1CCN(CC(=O)O)CCN(CC(=O)[O-])CCN(C(CCC(=O)N[C@H](Cc2ccc(O)c(I)c2)C(=O)N[C@H](Cc2ccccc2)C(=O)N[C@H](CCCCNC(=O)CCCCCCC(=O)NCCCC[C@H](NC(=O)N[C@@H](CCC(=O)O)C(=O)O)C(=O)O)C(=O)O)C(=O)O)CC1.[61Cu+2] (stereo partly drawn) [[^61Cu]Cu-DOTAGA-PSMA-I&T, DOTAGA-(l-y)fk(sub-KuE)], the “Radiochemical purity after 4 h at room temperature” value [1] was “approximately 90%”, the logDpH7.4 [2] was −2.69 ± 0.44 and the “Cellular uptake (surface-bound + internalized)” value (LNCaP cells; specific uptake) was 26.6% ± 1.3%. For the same molecule, the Internalized fraction (LNCaP cells; % of applied activity) was 13.3 ± 0.5%, the Surface-bound fraction (LNCaP cells; % of applied activity) was 13.4 ± 0.8% and the “Release of ^61Cu in the liver” value [3] was “approximately 70%”. For the same molecule, the “Biodistribution, Adrenals” value (LNCaP xenografts; 1 h after injection) was 9.35 ± 1.50 %IA/g, the “Biodistribution, Blood” value (LNCaP xenografts; 1 h after injection) was 2.06 ± 0.24 %IA/g and the “Biodistribution, Femur” value (LNCaP xenografts; 1 h after injection) was 2.31 ± 0.36 %IA/g. For the same molecule, the “Biodistribution, Heart” value (LNCaP xenografts; 1 h after injection) was 3.73 ± 0.32 %IA/g, the “Biodistribution, Intestine” value (LNCaP xenografts; 1 h after injection) was 8.95 ± 0.62 %IA/g and the “Biodistribution, Kidneys” value (LNCaP xenografts; 1 h after injection) was 57.1 ± 6.3 %IA/g. The “Biodistribution, Liver” value (LNCaP xenografts; 1 h after injection) was 19.3 ± 3.3 %IA/g, the “Biodistribution, Lung” value (LNCaP xenografts; 1 h after injection) was 6.35 ± 0.35 %IA/g and the “Biodistribution, Muscles” value (LNCaP xenografts; 1 h after injection) was 1.00 ± 0.05 %IA/g. For the same molecule, the “Biodistribution, Pancreas” value (LNCaP xenografts; 1 h after injection) was 2.82 ± 0.67 %IA/g, the “Biodistribution, Salivary glands” value (LNCaP xenografts; 1 h after injection) was 5.60 ± 1.39 %IA/g and the “Biodistribution, Spleen” value (LNCaP xenografts; 1 h after injection) was 4.64 ± 1.35 %IA/g. For the same molecule, the “Biodistribution, Stomach” value (LNCaP xenografts; 1 h after injection) was 7.77 ± 0.62 %IA/g, the “Biodistribution, Tumor (tumor uptake)” value (LNCaP xenografts; 1 h after injection) was 6.06 ± 0.25 %IA/g and the Tumor-to-Adrenals ratio (LNCaP xenografts; 1 h after injection) was 0.66 ± 0.13. For the same molecule, the Tumor-to-Blood ratio (LNCaP xenografts; 1 h after injection) was 2.97 ± 0.23, the Tumor-to-Intestine ratio (LNCaP xenografts; 1 h after injection) was 0.68 ± 0.07 and the Tumor-to-Kidneys ratio (LNCaP xenografts; 1 h after injection) was 0.11 ± 0.01. For the same molecule, the Tumor-to-Liver ratio (LNCaP xenografts; 1 h after injection) was 0.32 ± 0.05, the Tumor-to-Muscles ratio (LNCaP xenografts; 1 h after injection) was 6.08 ± 0.22 and the Tumor-to-Salivary glands ratio (LNCaP xenografts; 1 h after injection) was 1.14 ± 0.34. The Tumor-to-Spleen ratio (LNCaP xenografts; 1 h after injection) was 1.37 ± 0.29, the “Biodistribution, Adrenals” value (LNCaP xenografts; [4]) was 3.25 ± 0.92 %IA/g and the “Biodistribution, Blood” value (LNCaP xenografts; [4]) was 1.36 ± 0.15 %IA/g. For the same molecule, the “Biodistribution, Femur” value (LNCaP xenografts; [4]) was 1.50 ± 0.21 %IA/g, the “Biodistribution, Heart” value (LNCaP xenografts; [4]) was 2.34 ± 0.11 %IA/g and the “Biodistribution, Intestine” value (LNCaP xenografts; [4]) was 8.78 ± 2.18 %IA/g. The “Biodistribution, Kidneys” value (LNCaP xenografts; [4]) was 8.76 ± 1.57 %IA/g, the “Biodistribution, Liver” value (LNCaP xenografts; [4]) was 14.3 ± 1.7 %IA/g and the “Biodistribution, Lung” value (LNCaP xenografts; [4]) was 5.62 ± 1.61 %IA/g. For the same molecule, the “Biodistribution, Muscles” value (LNCaP xenografts; [4]) was 0.63 ± 0.10 %IA/g, the “Biodistribution, Pancreas” value (LNCaP xenografts; [4]) was 1.89 ± 0.34 %IA/g and the “Biodistribution, Salivary glands” value (LNCaP xenografts; [4]) was 3.25 ± 0.94 %IA/g. For the same molecule, the “Biodistribution, Spleen” value (LNCaP xenografts; [4]) was 2.46 ± 0.47 %IA/g, the “Biodistribution, Stomach” value (LNCaP xenografts; [4]) was 7.52 ± 1.58 %IA/g and the “Biodistribution, Tumor” value (LNCaP xenografts; [4]) was 3.31 ± 0.26 %IA/g. For the same molecule, the “Biodistribution, Adrenals” value (LNCaP xenografts; 4 h after injection) was 6.46 ± 2.38 %IA/g, the “Biodistribution, Blood” value (LNCaP xenografts; 4 h after injection) was 1.12 ± 0.24 %IA/g and the “Biodistribution, Femur” value (LNCaP xenografts; 4 h after injection) was 1.69 ± 0.25 %IA/g. The “Biodistribution, Heart” value (LNCaP xenografts; 4 h after injection) was 2.08 ± 0.33 %IA/g, the “Biodistribution, Intestine” value (LNCaP xenografts; 4 h after injection) was 7.74 ± 1.76 %IA/g and the “Biodistribution, Kidneys” value (LNCaP xenografts; 4 h after injection) was 22.1 ± 2.2 %IA/g. The “Biodistribution, Liver” value (LNCaP xenografts; 4 h after injection) was 13.9 ± 2.2 %IA/g, the “Biodistribution, Lung” value (LNCaP xenografts; 4 h after injection) was 4.67 ± 0.76 %IA/g and the “Biodistribution, Muscles” value (LNCaP xenografts; 4 h after injection) was 0.48 ± 0.08 %IA/g. The “Biodistribution, Pancreas” value (LNCaP xenografts; 4 h after injection) was 1.71 ± 0.23 %IA/g, the “Biodistribution, Salivary glands” value (LNCaP xenografts; 4 h after injection) was 2.31 ± 0.19 %IA/g and the “Biodistribution, Spleen” value (LNCaP xenografts; 4 h after injection) was 2.95 ± 0.73 %IA/g. For the same molecule, the “Biodistribution, Stomach” value (LNCaP xenografts; 4 h after injection) was 7.10 ± 0.97 %IA/g, the “Biodistribution, Tumor (tumor uptake)” value (LNCaP xenografts; 4 h after injection) was 4.88 ± 0.63 %IA/g and the Tumor-to-Adrenals ratio (LNCaP xenografts; 4 h after injection) was 0.81 ± 0.22. The Tumor-to-Blood ratio (LNCaP xenografts; 4 h after injection) was 4.56 ± 1.49, the Tumor-to-Intestine ratio (LNCaP xenografts; 4 h after injection) was 0.66 ± 0.23 and the Tumor-to-Kidneys ratio (LNCaP xenografts; 4 h after injection) was 0.22 ± 0.04. It also gave a Tumor-to-Liver ratio (LNCaP xenografts; 4 h after injection) of 0.35 ± 0.05, a Tumor-to-Muscles ratio (LNCaP xenografts; 4 h after injection) of 10.5 ± 2.8 and a Tumor-to-Salivary glands ratio (LNCaP xenografts; 4 h after injection) of 2.13 ± 0.43. For the same molecule, the Tumor-to-Spleen ratio (LNCaP xenografts; 4 h after injection) was 1.73 ± 0.46 and the “Blood values and background activity, fold higher than [^61Cu]Cu-NODAGA-PSMA-I&T” value (LNCaP xenografts; LNCaP xenografts) was “approximately 10 fold”.
